Type in all cases: in vivo
The subject of test [1] is Frankliniella occidentalis (Western Flower Thrips). As to the kind of experiment: Example B4: Frankliniella occidentalis feeding/contact activity, sunflower leaf discs. The conditions noted are these: foliar, 168 h, application rate of 200 ppm, mixed ages, 7 days after infestation. As to the method:
Sunflower leaf discs were placed on agar in 24-well microtiter plates and sprayed with aqueous test solutions prepared from 10,000 DMSO stock solutions. After drying the leaf discs were infested with a Frankliniella population of mixed ages. The samples were assessed for mortality 7 days after infestation.

The test system of test [2] is Plutella xylostella (Diamond Back Moth). As to the kind of experiment: Example B12: Plutella xylostella, artificial diet, eggs. The conditions noted are these: 192 h, application rate of 200 ppm, 8 days after infestation, read-out: effect in at least one of the two categories (mortality or growth inhibition). As to the method: 24-well microtiter plates with artificial diet were treated with aqueous test solutions prepared from 10,000 ppm DMSO stock solutions by pipetting. After drying, Plutella eggs were pipetted through a plastic stencil onto a gel blotting paper and the plate was closed with it. The samples were assessed for mortality and growth inhibition in comparison to untreated samples 8 days after infestation. The following compounds gave an effect of at least 80% in at least one of the two categories (mortality or growth inhibition) at an application rate of 200 ppm: P46.

Test [3] deals with Myzus persicae (Green peach aphid). Briefly: Example B5: Myzus persicae feeding/contact activity, sunflower leaf discs. The conditions noted are these: Myzus persicae, foliar, 144 h; application rate of 200 ppm; mixed ages; 6 days after infestation; read-out: mortality. The procedure: Sunflower leaf discs were placed onto agar in a 24-well microtiter plate and sprayed with aqueous test solutions prepared from 10,000 ppm DMSO stock solutions. After drying, the leaf discs were infested with an aphid population of mixed ages. The samples were assessed for mortality 6 days after infestation.

Test [4] has as its system Euschistus heros (Neotropical Brown Stink Bug). Briefly: Example B3: Euschistus heros, soybean leaves, N2 nymphs. The conditions noted are these: Euschistus heros, 120 h; application rate of 200 ppm; N2 nymphs; 5 days after infestation; read-out: effect in at least one of the two categories (mortality or growth inhibition). As to the method:
Soybean leaves on agar in 24-well microtiter plates were sprayed with aqueous test solutions prepared from 10,000 ppm DMSO stock solutions. After drying the leaves were infested with N2 nymphs. The samples were assessed for mortality and growth inhibition in comparison to untreated samples 5 days after infestation.

Test [5] deals with Tetranychus urticae (Two-Spotted Spider Mite). Briefly: Example B10: Tetranychus urticae feeding/contact activity, bean leaf discs. The settings on record: foliar, 192 h, application rate of 200 ppm, mixed population (mobile stages), 8 days after infestation. The procedure: Bean leaf discs on agar in 24-well microtiter plates were sprayed with aqueous test solutions prepared from 10,000 ppm DMSO stock solutions. After drying the leaf discs were infested with a mite population of mixed ages. The samples were assessed for mortality on mixed population (mobile stages) 8 days after infestation.

For test [6], the system named is Diabrotica Balteata (Corn Root Worm). As to the kind of experiment: Example B2: Diabrotica balteata, maize sprouts, L2 larvae. The settings on record: Diabrotica balteata, 96 h, application rate of 200 ppm; L2 larvae; 4 days after infestation; read-out: effect in at least one of the two categories (mortality or growth inhibition). As to the method:
Maize sprouts placed onto an agar layer in 24-well microtiter plates were treated with aqueous test solutions prepared from 10,000 ppm DMSO stock solutions by spraying. After drying, the plates were infested with L2 larvae (6 to 10 per well). The samples were assessed for mortality and growth inhibition in comparison to untreated samples 4 days after infestation.

The subject of test [7] is Myzus persicae (Green peach aphid). As to the kind of experiment: Example B6: Myzus persicae systemic activity, pea seedlings. The settings on record: Myzus persicae, 144 h; test rate of 24 ppm; mixed ages; 6 days after placing seedlings into test solutions; read-out: mortality. As to the method: Roots of pea seedlings infested with an aphid population of mixed ages were placed directly into aqueous test solutions prepared from 10,000 DMSO stock solutions. The samples were assessed for mortality 6 days after placing seedlings into test solutions.

For test [8], the system named is Bemisia tabaci (Cotton White Fly). Briefly: Example B1: Bemisia tabaci feeding/contact activity, cotton leaf discs. The conditions noted are these: foliar, 144 h, application rate of 200 ppm, adult white flies, 6 days after incubation. The procedure: Cotton leaf discs were placed on agar in 24-well microtiter plates and sprayed with aqueous test solutions prepared from 10,000 ppm DMSO stock solutions. After drying the leaf discs were infested with adult white flies. The samples were checked for mortality 6 days after incubation.

For test [9], the system named is Plutella xylostella (Diamond Back Moth). Briefly: Example B7: Plutella xylostella, artificial diet, L2 larvae. The conditions noted are these: 120 h, application rate of 200 ppm, L2 larvae, 5 days after infestation, read-out: effect in at least one of the two categories (mortality or growth inhibition). The procedure:
24-well microtiter plates with artificial diet were treated with aqueous test solutions prepared from 10,000 ppm DMSO stock solutions by pipetting. After drying, the plates were infested with L2 larvae (10 to 15 per well). The samples were assessed for mortality and growth inhibition in comparison to untreated samples 5 days after infestation.

Test [10] relates to Nilaparvata lugens (Brown Plant Hopper). As to the kind of experiment: Example B21: Nilaparvata lugens, larvicide, feeding/contact, rice plants. The settings on record: Concentration 3 ppm, NILALU (contact). The procedure: Rice plants were treated with the diluted test solutions in a spray chamber. After drying plants were infested with ˜20 N3 nymphs. 7 days after the treatment samples were assessed for mortality and growth regulation.

Test [11] concerns Myzus persicae (Green peach aphid). As to the kind of experiment: Example B20: Myzus persicae, mixed population, systemic into soil (drench), pea seedlings. The settings on record: Concentration 0.2 ppm, MYZUPE (drench). The procedure:
Pea seedlings cultivated in field soil and infested 1 day before treatment with mixed aged aphid population were treated as drench application and checked for mortality 7 days after treatment.

Test [12] shares this test system. Briefly: Example B19: Myzus persicae, mixed population, contact/feeding, pepper plants. The settings on record: Concentration 3 ppm, MYZUPE (contact). As to the method:
Pepper plants were infested with mixed aged aphid population and were treated 1 day after infestation with diluted test solutions in a spray chamber. 5 days after treatment samples were assessed for mortality.

The subject of test [13] is Frankliniella occidentalis (Western Flower Thrips). As to the kind of experiment: Example B23: Frankliniella occidentalis, mixed population, systemic into soil (drench), French bean plants. The conditions noted are these: Concentration 3 ppm, FRANOC (drench). The procedure: French bean plants cultivated in field soil, were treated via drench application and 1 day after treatment they were infested with mixed aged thrips population. 8 days after infestation samples were assessed for mortality and phytotoxicity symptoms.

The test system of another test is Melodoigyne incognita. As to the kind of experiment: Example B14: Melodoigyne incognita juvenile mobility, in vitro profiling in 96 well plate. The settings on record: 200 ppm; after 24 h; second stage juveniles; read-out: control (juvenile mobility). The gist of the method:
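Second-stage juveniles (100–150 per well, freshly harvested) were exposed in triplicate to test solutions prepared at 1000, 200, 100, 50, 25 and 12.5 ppm before nematode suspension was added. Plates were kept 24 h at room temperature in the dark. Juvenile mobility was measured by imaging and compared with 12 untreated replicates.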

For test [14], the system named is Frankliniella occidentalis (Western Flower Thrips). As to the kind of experiment: Example B22: Frankliniella occidentalis, mixed population, contact/feeding, French bean plants. The settings on record: Concentration 50 ppm, FRANOC (contact). The procedure: French bean plants were treated with diluted test solutions in a spray chamber. After drying plants were infested with a mixed aged thrips population. 7 days after infestation, samples were assessed for mortality.

The test system of test [15] is Spodoptera littoralis (Egyptian Cotton Leaf Worm). As to the kind of experiment: Example B9: Spodoptera littoralis, cotton leaf discs (mortality, anti-feeding, growth inhibition). The conditions noted are these: foliar, 72 h, application rate of 200 ppm, L1 larvae, 3 days after infestation, read-out: control (mortality, anti-feeding effect or growth inhibition). The gist of the method:
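Cotton leaf discs on agar sprayed with aqueous dilutions of 10,000 ppm DMSO stocks, dried, then infested with five L1 larvae. Mortality, anti-feeding and growth inhibition scored against untreated discs 3 days after infestation. Control recorded when any one category exceeds the untreated sample.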

For orientation: mortality means the share of the test organisms that died.

SMILES strings stand for the structures.

Regarding `CCS(=O)(=O)c1cc(N(C(C)=O)C(C)C)cnc1-c1nc2cc(C(F)(F)F)ncc2n1C` [P46, N-[5-ethylsulfonyl-6-[3-methyl-6-(trifluoromethyl)imidazo[4,5-c]pyridin-2-yl]-3-pyridyl]-N-isopropyl-acetamide], the mortality at 200 ppm in test [1], in [3], in test [5] and in [8] was at least 80% in each case. In addition, the percent effect (mortality or growth inhibition) at 200 ppm in [2], in [4] and in [6] was at least 80% in each case. In test [7], the mortality at 24 ppm is at least 80%.
On to `CCS(=O)(=O)c1cc(N(C)C(C)=O)cnc1-c1nc2cc(C(F)(F)F)ncc2n1C` [P6, N-[5-ethylsulfonyl-6-[3-methyl-6-(trifluoromethyl)imidazo[4,5-c]pyridin-2-yl]-3-pyridyl]-N-methyl-acetamide], for which the percent effect (mortality or growth inhibition) at 200 ppm in test [9], in [4] and in test [6] was at least 80% in each case. The mortality at 200 ppm in [1], in test [3], in test [5] and in test [8] was at least 80% each time. Further, the mortality at 3 ppm was found to be 80% in test [10], 70% in [12] and 92.5% in test [13]. For the same compound, the mortality at 0.2 ppm in test [11] turned out to be 92.5%. Moreover, in test [7], the mortality at 24 ppm was at least 80%. Moreover, in the test on Melodoigyne incognita, the pest or weed control at 200 ppm was at least 80%. In test [14], this compound yielded a mortality at 50 ppm of 98%. Besides, the percent control (mortality, anti-feedant effect or growth inhibition) at 200 ppm in test [15] was at least 80%.

The values are drawn from patent US20210047291A1, “PESTICIDALLY ACTIVE HETEROCYCLIC DERIVATIVES WITH SULFUR CONTAINING SUBSTITUENTS” (SYNGENTA PARTICIPATIONS AG, priority 2018, published 2021).
